Measurements from ChEMBL document CHEMBL1142670, “Synthesis, nicotinic acetylcholine receptor binding, and antinociceptive properties of 3'-substituted deschloroepibatidine analogues. Novel nicotinic antagonists” (J Med Chem, 2005).

How the values were obtained:
[1] = target: Neuronal acetylcholine receptor subunit alpha-7 (Rattus norvegicus, UniProt Q05941); assay: Inhibition of [125I]-iodo-MLA binding to Nicotinic acetylcholine receptor alpha-7 in rat cerebral cortex; type: tissue-based
Mus musculus [2] = species on record: Mus musculus; assay: Effective dose to induce hypothermia in mouse was determined; type: functional
Mus musculus [3] = species on record: Mus musculus; assay: Effective dose to induce antinociception in mouse determined in tail-flick test; type: functional
Mus musculus [4] = assay: Effect on body temperature of mouse was determined at 0.01 ug/kg; type: functional
Mus musculus [5] = assay: Anesthetic dose in hotplate test in mouse; type: functional
Mus musculus [6] = species on record: Mus musculus; assay: Effective dose to induce spontaneous activity in mouse was determined; type: functional
Mus musculus [7] = assay: Anesthetic dose in mouse in tail-flick test; type: functional
[8] = target: Neuronal acetylcholine receptor; alpha4/beta2 (Rattus norvegicus, UniProt P09483+P12390); assay: Inhibition of [3H]epibatidine binding to Nicotinic acetylcholine receptor alpha4-beta2 in rat cerebral cortex; type: tissue-based
Mus musculus [9] = species on record: Mus musculus; assay: Effective dose to induce antinociception in mouse determined in hotplate test; type: functional
Mus musculus [10] = assay: Effect on body temperature of mouse was determined at 0.02 ug/kg; type: functional
Mus musculus [11] = assay: Anesthetic effect in hotplate test in mouse at 0.1 ug/kg; type: functional
Mus musculus [12] = assay: Anesthetic effect in hotplate test in mouse at 10 ug/kg; type: functional
Mus musculus [13] = assay: Effect on body temperature of mouse was determined at 10 ug/kg; type: functional
Mus musculus [14] = assay: Anesthetic effect in mouse in hotplate test at 20 ug/kg; type: functional
[15] = Effect on body temperature of mouse was measured in tail-flick test at the rate 500 ug/kg; type: functional
Mus musculus [16] = assay: Anesthetic effect in mouse in hotplate test at 10 ug/kg; type: functional
[17] = Mus musculus, Tail, read-out: ED50

Sequence of Neuronal acetylcholine receptor; alpha4/beta2 (P09483 whole entry): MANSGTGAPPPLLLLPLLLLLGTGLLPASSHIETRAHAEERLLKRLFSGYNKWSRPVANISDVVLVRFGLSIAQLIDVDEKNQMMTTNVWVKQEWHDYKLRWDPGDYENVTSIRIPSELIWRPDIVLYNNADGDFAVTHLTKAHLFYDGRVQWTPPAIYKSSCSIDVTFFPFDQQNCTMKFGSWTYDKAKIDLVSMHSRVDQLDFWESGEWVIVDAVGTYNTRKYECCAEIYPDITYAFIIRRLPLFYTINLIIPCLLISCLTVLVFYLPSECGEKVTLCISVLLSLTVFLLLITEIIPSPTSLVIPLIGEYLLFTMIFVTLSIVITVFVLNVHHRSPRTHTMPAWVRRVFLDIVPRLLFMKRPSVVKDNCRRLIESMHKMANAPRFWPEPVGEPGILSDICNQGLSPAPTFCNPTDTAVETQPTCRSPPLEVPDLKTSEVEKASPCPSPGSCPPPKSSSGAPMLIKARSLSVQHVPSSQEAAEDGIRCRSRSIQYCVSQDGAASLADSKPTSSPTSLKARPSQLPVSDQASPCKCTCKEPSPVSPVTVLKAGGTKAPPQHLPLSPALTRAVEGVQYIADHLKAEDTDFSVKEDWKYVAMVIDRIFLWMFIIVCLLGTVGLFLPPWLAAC
Sequence of Neuronal acetylcholine receptor; alpha4/beta2 (P12390 whole entry): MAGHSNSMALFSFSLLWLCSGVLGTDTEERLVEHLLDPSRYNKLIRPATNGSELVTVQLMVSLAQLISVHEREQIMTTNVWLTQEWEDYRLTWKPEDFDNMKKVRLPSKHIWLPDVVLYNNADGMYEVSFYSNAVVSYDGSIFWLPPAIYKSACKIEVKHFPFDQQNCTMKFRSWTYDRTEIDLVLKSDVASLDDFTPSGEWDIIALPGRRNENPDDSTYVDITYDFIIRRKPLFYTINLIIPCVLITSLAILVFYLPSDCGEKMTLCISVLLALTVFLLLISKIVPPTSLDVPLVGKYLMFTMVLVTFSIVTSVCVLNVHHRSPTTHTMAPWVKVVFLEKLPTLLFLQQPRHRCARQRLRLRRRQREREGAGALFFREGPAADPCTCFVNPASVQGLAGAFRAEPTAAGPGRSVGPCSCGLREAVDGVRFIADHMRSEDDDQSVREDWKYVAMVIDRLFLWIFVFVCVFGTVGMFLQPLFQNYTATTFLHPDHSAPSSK
Sequence of Neuronal acetylcholine receptor subunit alpha-7 (Q05941 whole entry): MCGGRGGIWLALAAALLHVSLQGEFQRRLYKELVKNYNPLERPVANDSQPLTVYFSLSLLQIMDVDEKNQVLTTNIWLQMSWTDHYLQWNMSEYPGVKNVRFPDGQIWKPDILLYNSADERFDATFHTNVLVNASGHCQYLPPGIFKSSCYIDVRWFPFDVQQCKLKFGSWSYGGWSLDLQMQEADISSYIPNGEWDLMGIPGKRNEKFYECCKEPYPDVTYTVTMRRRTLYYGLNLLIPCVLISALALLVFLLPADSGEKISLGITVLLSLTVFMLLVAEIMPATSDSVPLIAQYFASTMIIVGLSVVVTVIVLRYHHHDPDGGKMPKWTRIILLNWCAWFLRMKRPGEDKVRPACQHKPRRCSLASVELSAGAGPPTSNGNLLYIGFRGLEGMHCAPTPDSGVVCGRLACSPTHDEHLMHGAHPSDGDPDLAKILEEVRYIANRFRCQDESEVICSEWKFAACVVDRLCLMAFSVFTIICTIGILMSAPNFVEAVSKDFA

| SMILES | Ki [1] [nM] | ED50 (Mus musculus [2]; Mus musculus, read-out: ED50) [µg/kg] | ED50 (Mus musculus [3]; [17]) [µg/kg] | Effect (Mus musculus [4]) [%] | AD50 (Mus musculus [5]) [µg/kg] | ED50 (Mus musculus [6]; Mus musculus, read-out: ED50) [µg/kg] | AD50 (Mus musculus [7]) [µg/kg] | Ki [8] [nM] | ED50 (Mus musculus [9]; Mus musculus, read-out: ED50) [µg/kg] | Effect (Mus musculus [10]) [%] | Anesthetic effect (Mus musculus [11]) [%] | Anesthetic effect (Mus musculus [12]) [%] | Effect (Mus musculus [13]) [%] | Anesthetic effect (Mus musculus [14]) [%] | ED50 (Mus musculus [3]) [µg/kg] | Increase [15] [%] | ED50 (Mus musculus [6]) [µg/kg] | ED50 (Mus musculus [9]) [µg/kg] | ED50 (Mus musculus [2]) [µg/kg] | Anesthetic effect (Mus musculus [16]) [%] |
| --- | --- | --- | --- | --- | --- | --- | --- | --- | --- | --- | --- | --- | --- | --- | --- | --- | --- | --- | --- | --- |
| Nc1cncc(C2CC3CCC2N3)c1 (centres undefined) | 732 | 2700 | 4700 | 0 | 6.9 | 900 | 1.6 | 0.097 | 3100 | – | – | – | – | – | – | – | – | – | – | – |
| Clc1cncc(C2CC3CCC2N3)c1 (centres undefined) | 50.6 | 150 | 300 | – | 15 | 40 | 0.2 | 0.055 | 230 | 0 | – | – | – | – | – | – | – | – | – | – |
| Brc1cncc(C2CC3CCC2N3)c1 (centres undefined) | 164 | 70 | 1200 | 0 | 0.78 | 100 | 15 | 0.05 | 570 | – | – | – | – | – | – | – | – | – | – | – |
| C#Cc1cncc(C2CC3CCC2N3)c1 (centres undefined) | 5 | 50 | 1000 | 0 | – | 1 | 6 | 0.02 | 560 | – | 0 | – | – | – | – | – | – | – | – | – |
| C=Cc1cncc(C2CC3CCC2N3)c1 (centres undefined) | 344 | 450 | 1000 | 0 | 100 | 200 | 2.4 | 0.26 | 800 | – | – | – | – | – | – | – | – | – | – | – |
| CN1C2CCC1C(c1cncc(I)c1)C2 (centres undefined) | 33.2 | 340 | 600 | – | – | 30 | 0.04 | 0.029 | 370 | – | – | 0 | 0 | – | – | – | – | – | – | – |
| Fc1cncc(C2CC3CCC2N3)c1 (centres undefined) | > 1000 | 150 | 80 | – | – | 23 | 0.07 | – | 50 | 0 | – | – | – | 35 | – | – | – | – | – | – |
| Ic1cncc(C2CC3CCC2N3)c1 (single isomer, unassigned; (+)) | 179 | – | – | – | – | – | 1.2 | 0.045 | – | – | – | – | – | 15 | 780 | 6 | 91 | 60 | – | – |
| Ic1cncc(C2CC3CCC2N3)c1 (single isomer, unassigned; (-)) | 156 | – | – | – | – | – | 0.11 | 0.048 | – | – | – | – | – | – | 940 | – | 351 | 210 | 480 | 15 |
| Ic1cncc(C2CC3CCC2N3)c1 (stereo in doubt; 3d) | 150 | 780 | 800 | 0 | 0.24 | – | 0.1 | – | – | – | – | – | – | – | – | – | 130 | 900 | – | – |
| Clc1ccc(C2CC3CCC2N3)cn1 (centres undefined) [EPIBATIDINE] | – | 4 | 6 | – | – | 1 | – | – | 4 | – | – | – | – | – | – | – | – | – | – | – |
| CN1CCC[C@H]1c1cccnc1 [NICOTINE] | – | 1000 | 1300 | – | – | 500 | – | – | 650 | – | – | – | – | – | – | – | – | – | – | – |
